{
  "source": "paper PMC8633584",
  "about": "“Patient mutations in human ATP:cob(I)alamin adenosyltransferase differentially affect its catalytic versus chaperone functions” (The Journal of Biological Chemistry, 2021)",
  "key": {"R190C ATR [1]": {"molecular_target": "T1, R190C ATR (Homo sapiens, UniProt Q96EY8, R190C)", "T1 sequence (Q96EY8 38-250 R190C limits assumed)": "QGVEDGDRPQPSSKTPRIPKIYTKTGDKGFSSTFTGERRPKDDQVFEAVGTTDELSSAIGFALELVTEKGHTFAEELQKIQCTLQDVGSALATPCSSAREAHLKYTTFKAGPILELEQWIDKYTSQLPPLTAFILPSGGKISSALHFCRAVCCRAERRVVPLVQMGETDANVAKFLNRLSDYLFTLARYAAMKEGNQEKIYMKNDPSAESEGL", "test": "AdoCbl synthesis, steady-state kinetics", "assay_type": "biochemical", "set-up": "The expression construct for recombinant human full-length and ΔN18 ATR in a pET-28b vector; His-tag (thrombin-cleavable) (N, cleaved yes); made in house; host or cells: E. coli BL21 (DE3)", "experimental": "(§1) AdoCbl synthesis was determined by mixing cob(II)alamin (40 μM) in buffer A at 20 °C with ∼10 equivalents of titanium citrate under strictly anaerobic conditions. The reaction was started by addition of ATP (1 mM) and ATR (1 μM trimer concentration). The concentration of cob(I)alamin formed by reduction of cob(II)alamin was estimated using ε386nm = 28.0 cm^−1 mM^−1. The rate of AdoCbl synthesis was determined by measuring the change in absorbance at 522 nm using Δ ε522nm =5.06 mM^−1 cm^−1."}, "WT ATR [2]": {"molecular_target": "T2, WT ATR (Homo sapiens, UniProt Q96EY8)", "T2 sequence (Q96EY8 38-250 limits assumed)": "T1 sequence (Q96EY8 38-250 R190C limits assumed) with C153R", "test": "AdoCbl synthesis, steady-state kinetics", "assay_type": "biochemical", "set-up": "The expression construct for recombinant human full-length and ΔN18 ATR in a pET-28b vector; His-tag (thrombin-cleavable) (N, cleaved yes); made in house; host or cells: E. coli BL21 (DE3)", "experimental": "as §1"}, "E193K ATR [3]": {"molecular_target": "T3, E193K ATR (Homo sapiens, UniProt Q96EY8, E193K)", "T3 sequence (Q96EY8 38-250 E193K limits assumed)": "T1 sequence (Q96EY8 38-250 R190C limits assumed) with C153R, E156K", "test": "AdoCbl synthesis, steady-state kinetics", "assay_type": "biochemical", "set-up": "WT and the R190C variants of ΔN18-ATR and full-length E193K ATR were purified; His-tag (thrombin-cleavable) (N, cleaved yes); made in house; host or cells: E. coli BL21 (DE3)", "experimental": "as §1"}, "R190H ATR [4]": {"molecular_target": "T4, R190H ATR (Homo sapiens, UniProt Q96EY8, R190H)", "T4 construct": "The expression construct for recombinant human full-length and ΔN18 ATR in a pET-28b vector; His-tag (thrombin-cleavable) (N, cleaved yes); made in house; host or cells: E. coli BL21 (DE3)", "T4 sequence (Q96EY8 38-250 R190H limits assumed)": "T1 sequence (Q96EY8 38-250 R190C limits assumed) with C153H", "test": "AdoCbl synthesis, steady-state kinetics", "assay_type": "biochemical", "experimental": "as §1"}, "R190C ATR [5]": {"molecular_target": "T1, R190C ATR", "test": "AdoCbl binding to ATR, UV-visible titration", "set-up": "The expression construct for recombinant human full-length and ΔN18 ATR in a pET-28b vector; His-tag (thrombin-cleavable) (N, cleaved yes); made in house; host or cells: E. coli BL21 (DE3)", "experimental": "(§2) Unless noted otherwise, all titration experiments were performed in buffer A. AdoCbl binding was monitored by adding increasing concentrations of WT or mutant ATR to 30 μM AdoCbl in buffer A at 20 °C. The spectrum was recorded 5 min after each addition. The concentration of bound AdoCbl was determined using […] = 8.0 cm^−1 mM^−1. The change in absorbance at 455 nm (corresponding to base-off AdoCbl bound to ATR) was plotted versus ATR concentration and fitted using the Dynafit software (BioKin) ([35]). Equation 1 (where A is the absorbance at 455 nm following each aliquot of ATR, ΔAmax is the maximal change in absorbance at 455 nm upon binding of AdoCbl to ATR, [E]t is the concentration of ATR active sites, and [L]t is the total AdoCbl concentration) was used to determine the dissociation constant for AdoCbl.(1) A=ΔAmax×([E]t+[L]t+Kd)+([E]t+[L]t+Kd)^2−4[L]t[E]t/2[L]t\n(§3) The effect of PPPi on the KD for AdoCbl was determined by performing the above titration in the presence of 1 mM PPPi under anaerobic conditions."}, "WT ATR [6]": {"molecular_target": "T2, WT ATR", "test": "AdoCbl binding to ATR, UV-visible titration", "set-up": "The expression construct for recombinant human full-length and ΔN18 ATR in a pET-28b vector; His-tag (thrombin-cleavable) (N, cleaved yes); made in house; host or cells: E. coli BL21 (DE3)", "experimental": "as §2, §3"}, "R190H ATR [7]": {"molecular_target": "T4, R190H ATR", "test": "AdoCbl binding to ATR, UV-visible titration", "experimental": "as §2, §3"}, "E193K ATR [8]": {"molecular_target": "T3, E193K ATR", "test": "AdoCbl binding to ATR, UV-visible titration", "set-up": "WT and the R190C variants of ΔN18-ATR and full-length E193K ATR were purified; His-tag (thrombin-cleavable) (N, cleaved yes); made in house; host or cells: E. coli BL21 (DE3)", "experimental": "as §2, §3"}, "R190C ATR [9]": {"molecular_target": "T1, R190C ATR", "details": "1.1:1.0:1.0 R190C ATR:AdoCbl:PPPi", "experimental": "(§4) The samples were prepared in an anaerobic chamber and contained: PPPi (1 mM), WT, R190C or E193K ATR (1.1 mM active sites), MgCl2 (2 mM), AdoCbl (1 mM) in 50 mM Hepes buffer pH 7.5 containing 150 mM KCl and 2 mM DTT at room temperature. The samples were transferred to 5-mm (internal diameter) NMR tubes (Wilmad-Glass), and the final volume was brought up to 0.4 ml with 90% water and 10% D2O (Cambridge Isotope Labs).\n(§5) […] NMR spectra were collected at 242.5 MHz on a Bruker AVANCE NEO spectrometer equipped with a prodigy cryoprobe locked to D2O. All the NMR experiments were carried out at 25 °C using 12 μs 90° pulse widths, 8192 data points, and 4096 scans with 0.8 s recycle time. The chemical shifts were reported on proton-decoupled spectra by Gaussian line fits to the singlet resonances, relative to an external standard of 85% H3P0_4."}, "WT ATR [10]": {"molecular_target": "T2, WT ATR", "details": "WT ATR 1.1 mM active sites, PPPi 1 mM, no AdoCbl", "experimental": "as §4, §5"}, "E193K ATR [11]": {"molecular_target": "T3, E193K ATR", "details": "1.1:1.0:1.0 E193K ATR:AdoCbl:PPPi", "experimental": "as §4, §5"}},
  "note": "Residue numbers refer to the chain shown, from its start.",
  "data": [
    {"molecule": "Nc1ncnc2c1ncn2[C@@H]1O[C@H](COP(=O)(O)OP(=O)(O)OP(=O)(O)O)[C@@H](O)[C@H]1O", "note": "[ATP]", "values": [
      {"measurement": "increase of KM for ATP relative to WT ATR", "setting": "R190C ATR [1]; R190C ATR vs WT", "result": 20, "unit": "fold"},
      {"measurement": "lower activity (kcat) relative to WT ATR", "setting": "R190C ATR [1]; R190C ATR vs WT", "result": 16, "unit": "fold"},
      {"measurement": "kcat", "setting": "R190C ATR [1]; R190C ATR, AdoCbl synthesis, cob(II)alamin 40 μM, titanium citrate, anaerobic, 20 °C", "result": "0.012 ± 0.0017", "unit": "s⁻¹"},
      {"measurement": "Km", "setting": "R190C ATR [1]; R190C ATR, read-out: KM (ATP)", "result": "92 ± 31", "unit": "µM"},
      {"measurement": "kcat", "setting": "WT ATR [2]; AdoCbl synthesis, cob(II)alamin 40 μM, titanium citrate, anaerobic, 20 °C", "result": "0.192 ± 0.0267", "unit": "s⁻¹"},
      {"measurement": "Km", "setting": "WT ATR [2]; read-out: KM (ATP)", "result": "4.5 ± 1.1", "unit": "µM"},
      {"measurement": "increase of KM for ATP relative to WT ATR", "setting": "E193K ATR [3]; E193K ATR vs WT", "result": 52, "unit": "fold"},
      {"measurement": "kcat", "setting": "E193K ATR [3]; E193K ATR, AdoCbl synthesis, cob(II)alamin 40 μM, titanium citrate, anaerobic, 20 °C", "result": "0.18 ± 0.01", "unit": "s⁻¹"},
      {"measurement": "Km", "setting": "E193K ATR [3]; E193K ATR, read-out: KM (ATP)", "result": "235 ± 16", "unit": "µM"},
      {"measurement": "lower activity (kcat) relative to WT ATR", "setting": "R190H ATR [4]; R190H ATR vs WT", "result": 115, "unit": "fold"},
      {"measurement": "kcat", "setting": "R190H ATR [4]; R190H ATR, AdoCbl synthesis, cob(II)alamin 40 μM, titanium citrate, anaerobic, 20 °C", "result": "0.0017 ± 0.0017", "unit": "s⁻¹"}
    ]},
    {"molecule": "C/C1=C2/[N-][C@H]([C@H](CC(N)=O)[C@@]2(C)CCC(=O)NC[C@@H](C)OP(=O)([O-])O[C@H]2[C@@H](O)[C@@H](n3cnc4cc(C)c(C)cc43)O[C@@H]2CO)[C@]2(C)N=C(/C(C)=C3N=C(/C=C4N=C1[C@@H](CCC(N)=O)C\\4(C)C)[C@@H](CCC(N)=O)[C@]\\3(C)CC(N)=O)[C@@H](CCC(N)=O)[C@]2(C)CC(N)=O.[CH2-][C@H]1O[C@@H](n2cnc3c(N)ncnc32)[C@H](O)[C@@H]1O.[Co+3]", "note": "[AdoCbl, 5′-deoxyadenosylcobalamin]", "values": [
      {"measurement": "Kd", "setting": "R190C ATR [5]; 1 mM PPPi, anaerobic", "result": "4 ± 1", "unit": "µM"},
      {"measurement": "lower KD(AdoCbl) in the presence of PPPi", "setting": "R190C ATR [5]; PPPi 1 mM", "result": 10, "unit": "fold"},
      {"measurement": "Kd", "setting": "R190C ATR [5]; without PPPi, buffer A, 20 °C", "result": "40 ± 6", "unit": "µM"},
      {"measurement": "Kd", "setting": "WT ATR [6]; 1 mM PPPi, anaerobic", "result": "0.2 ± 0.1", "unit": "µM"},
      {"measurement": "decrease of KD for AdoCbl by PPPi", "setting": "WT ATR [6]; PPPi 1 mM", "result": 5, "unit": "fold"},
      {"measurement": "Kd", "setting": "WT ATR [6]; without PPPi, buffer A, 20 °C", "result": "1 ± 0.3", "unit": "µM"},
      {"measurement": "Kd", "setting": "R190H ATR [7]; 1 mM PPPi, anaerobic", "result": "13 ± 3", "unit": "µM"},
      {"measurement": "lower KD(AdoCbl) in the presence of PPPi", "setting": "R190H ATR [7]; PPPi 1 mM", "result": 3.9, "unit": "fold"},
      {"measurement": "Kd", "setting": "R190H ATR [7]; without PPPi, buffer A, 20 °C", "result": "50 ± 5", "unit": "µM"},
      {"measurement": "Kd", "setting": "E193K ATR [8]; 1 mM PPPi, anaerobic", "result": "100 ± 20", "unit": "µM"},
      {"measurement": "effect of PPPi on KD for AdoCbl", "setting": "E193K ATR [8]; PPPi 1 mM", "result": "no effect"},
      {"measurement": "Kd", "setting": "E193K ATR [8]; without PPPi, buffer A, 20 °C", "result": "120 ± 30", "unit": "µM"}
    ]},
    {"molecule": "O=P(O)(O)OP(=O)(O)OP(=O)(O)O", "note": "[PPPi, inorganic triphosphate]", "values": [
      {"measurement": "PPPi binding by 31P NMR", "setting": "R190C ATR [9]", "result": "did not lead to detectable PPPi binding"},
      {"measurement": "PPPi binding by 31P NMR", "setting": "WT ATR [10]", "result": "not bound to the protein"},
      {"measurement": "PPPi binding by 31P NMR", "setting": "E193K ATR [11]", "result": "did not lead to detectable PPPi binding"}
    ]}
  ]
}
